Laboratory results reported in article PMC6717004 (Toxicology in vitro : an international journal published in …, 2019).
Where two headings read alike, the source gives them in different places. Marks after values point to notes of the source that are not given here.

Tests used:
[1] = test system: human plasma; details: cited from earlier work; for reported Fub based on RED: human plasma, ref Wetmore et al.
[2] = test system: pooled human plasma; test: Rapid Equilibrium Dialysis; type: in vitro ADME; details: 10 μM, 37 °C, 4 hours, 8K MWCO membrane
[3] = type: in vitro ADME; details: RED with PBS in both chambers, 10 μM, 4 hours, 8K MWCO
[4] = test system: pooled human plasma; test: Solid Phase Micro-Extraction; type: in vitro ADME; details: 10 μM, room temperature, C18 fibers
[5] = test system: human plasma; details: ref Musteata et al., 2006; cited from earlier work
[6] = ref Wetmore, 2015, Wetmore et al., 2012

SMILES: c1cc2c3c(cccc3c1)CC2 [Acenaphthene]
- Literature % unbound (equilibrium dialysis) [1, 6]: 4.5%^b

SMILES: c1ccc(-c2ccccc2)cc1 [Biphenyl]
- Literature % unbound (equilibrium dialysis) [1]: 1.6%^b

SMILES: CNC(=O)Oc1cccc2ccccc12 [Carbaryl]
- reported Fub based on RED [1]; 2012: 70%
- Literature % unbound (equilibrium dialysis) [1, 6]: 69%^b

SMILES: COc1cc(N)c(Cl)cc1C(=O)NC1CCN(CCCOc2ccc(F)cc2)CC1OC (stereo not drawn) [Cisapride, reference compound]
- Literature % unbound (equilibrium dialysis) ([1]; ref FDA package insert): 2-3%^c
- unbound fraction (Fub) by RED [2]: most highly bound

SMILES: CC(C)NCC(O)c1ccc(O)c(O)c1 (stereo not drawn) [Isoproterenol, reference compound]
- Literature % unbound (equilibrium dialysis) ([1]; ref Kelly and McDevitt, 1978): 35%^a
- unbound fraction (Fub) by RED [2]: mostly free

SMILES: c1ccc2ccccc2c1 [Naphthalene]
- reported Fub based on RED [1]; 2012: ~ 2%
- protein-free free fraction (equilibration percentage) [3]: > 80%

SMILES: CC1(C)C(C=C(Cl)Cl)C1C(=O)OCc1cccc(Oc2ccccc2)c1 (stereo not drawn) [Permethrin]
- reported Fub based on RED [1]; 2012: 0%

SMILES: Cc1nc(N(C)C)nc(OC(=O)N(C)C)c1C [Pirimicarb]
- Literature % unbound (equilibrium dialysis) [1, 6]: 16%^b

SMILES: CC(C)NCC(O)COc1cccc2ccccc12 (stereo not drawn) [Propranolol]
- unbound fraction (Fub) by SPME [4]: consistent with the reported value
- Literature % unbound (SPME) [5]: 25%^e

SMILES: c1cc2ccc3cccc4ccc(c1)c2c34 [Pyrene]
- Literature % unbound (equilibrium dialysis) [1, 6]: 2.4%^b
